Laboratory results published in patent US20190375708A1 (VenatoRx Pharmaceuticals, Inc., priority 2018, published 2019).

Experiments:
[1] = tested on: HBV replication in HepAD38 cells; assay: Anti-HBV replication assay in HepAD38 cells (QPCR of extracellular HBV DNA); type: cell-based, HBV (genotype D, serotype ayw); details: Hepatitis B virus, 168 h, 7 days incubation, extracellular HBV DNA by QPCR, read-out: Anti-HBV EC50
Summary of the method: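 HepAD38 cells (HepG2 carrying a tet-repressible HBV genotype D genome) were seeded in tetracycline-free medium and treated next day with compound […] for 7 days. Supernatant HBV DNA was measured by QPCR against a standard curve; EC50 came from 4-parameter fits of inhibition versus DMSO control.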

[2] = In vitro cytotoxicity assay (MTT cell viability) in HepG2 cells; type: cell-based, human; details: human
Summary of the method: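 HepG2 cells incubated 7 days at 37 °C, 5% CO2 with compounds from 30 μM to 1.0 nM (8 half-log dilutions). Viability read as MTT formazan absorbance at 492 nm, normalised to vehicle controls; CC50 from 4-parameter non-linear regression.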

Cc1noc([C@H](C)NC(=O)C(=O)c2cc(C(=O)Nc3ccc(F)c(C)c3)c3n2CCCC3)n1 [Example 430, (S)-N-(4-fluoro-3-methylphenyl)-3-(2-((1-(3-methyl-1,2,4-oxadiazol-5-yl)ethyl)amino)-2-oxoacetyl)-5,6,7,8-tetrahydroindolizine-1-carboxamide]
EC50 [1]: 50 to 499 nM
CC50 at 7 days [2]: > 30000 nM

Cc1noc([C@@H](C)NC(=O)C(=O)c2cc(C(=O)Nc3ccc(F)c(C)c3)c3n2CCCC3)n1 [Example 431, (R)-N-(4-fluoro-3-methylphenyl)-3-(2-((1-(3-methyl-1,2,4-oxadiazol-5-yl)ethyl)amino)-2-oxoacetyl)-5,6,7,8-tetrahydroindolizine-1-carboxamide]
EC50 [1]: 50 to 499 nM
CC50 at 7 days [2]: > 30000 nM

Cc1cc(NC(=O)c2cc(C(=O)C(=O)NC3(CO)CC(F)(F)C3)n3c2CCCC3)ccc1F [Example 432, 3-(2-((3,3-difluoro-1-(hydroxymethyl)cyclobutyl)amino)-2-oxoacetyl)-N-(4-fluoro-3-methylphenyl)-5,6,7,8-tetrahydroindolizine-1-carboxamide]
EC50 [1]: 50 to 499 nM
CC50 at 7 days [2]: > 30000 nM

Cc1cc(NC(=O)c2cc(C(=O)C(=O)N[C@H](CO)[C@@H](C)O)n3c2CCCC3)ccc1F [Example 433, 3-(2-(((2R,3R)-1,3-dihydroxybutan-2-yl)amino)-2-oxoacetyl)-N-(4-fluoro-3-methylphenyl)-5,6,7,8-tetrahydroindolizine-1-carboxamide]
EC50 [1]: 500 to 1000 nM
CC50 at 7 days [2]: > 30000 nM

Cc1cc(NC(=O)c2c(C)c(C(=O)C(=O)NC(C)(C)C)n3c2CCCC3)ccc1F [Example 434, 3-(2-(tert-butylamino)-2-oxoacetyl)-N-(4-fluoro-3-methylphenyl)-2-methyl-5,6,7,8-tetrahydroindolizine-1-carboxamide]
EC50 [1]: < 50 nM
CC50 at 7 days [2]: > 30000 nM

Cc1c(C(=O)Nc2ccc(F)c(C#N)c2)c2n(c1C(=O)C(=O)NC(C)(C)C)CCCC2 [Example 435, 3-(2-(tert-butylamino)-2-oxoacetyl)-N-(3-cyano-4-fluorophenyl)-2-methyl-5,6,7,8-tetrahydroindolizine-1-carboxamide]
EC50 [1]: > 1000 nM
CC50 at 7 days [2]: 5000 to 30000 nM

Cc1cc(NC(=O)c2c(C)c(C(=O)C(=O)NC(C)(C)CO)n3c2CCCC3)ccc1F [Example 436, N-(4-fluoro-3-methylphenyl)-3-(2-((1-hydroxy-2-methylpropan-2-yl)amino)-2-oxoacetyl)-2-methyl-5,6,7,8-tetrahydroindolizine-1-carboxamide]
EC50 [1]: 50 to 499 nM
CC50 at 7 days [2]: > 30000 nM

Cc1cc(NC(=O)c2c(C)c(C(=O)C(=O)NC(C)(C)c3nc(CN(C)C)no3)n3c2CCCC3)ccc1F [Example 437, 3-(2-((2-(3-((dimethylamino)methyl)-1,2,4-oxadiazol-5-yl)propan-2-yl)amino)-2-oxoacetyl)-N-(4-fluoro-3-methylphenyl)-2-methyl-5,6,7,8-tetrahydroindolizine-1-carboxamide]
EC50 [1]: 50 to 499 nM
CC50 at 7 days [2]: > 30000 nM

Cc1cc(NC(=O)c2c(C)c(C(=O)C(=O)N[C@H]3C[C@H](O)C3)n3c2CCCC3)ccc1F [Example 438, N-(4-fluoro-3-methylphenyl)-3-(2-(((1r,3r)-3-hydroxycyclobutyl)amino)-2-oxoacetyl)-2-methyl-5,6,7,8-tetrahydroindolizine-1-carboxamide]
EC50 [1]: 50 to 499 nM
CC50 at 7 days [2]: > 30000 nM

Cc1cc(NC(=O)c2c(C)c(C(=O)C(=O)N[C@H]3COC[C@@H]3O)n3c2CCCC3)ccc1F [Example 439, N-(4-fluoro-3-methylphenyl)-3-(2-(((3S,4R)-4-hydroxytetrahydrofuran-3-yl)amino)-2-oxoacetyl)-2-methyl-5,6,7,8-tetrahydroindolizine-1-carboxamide]
EC50 [1]: 50 to 499 nM
CC50 at 7 days [2]: > 30000 nM

Cc1cc(NC(=O)c2c(C)c(C(=O)C(=O)N[C@H]3CCC[C@H]3O)n3c2CCCC3)ccc1F [Example 440, N-(4-fluoro-3-methylphenyl)-3-(2-(((1S,2R)-2-hydroxycyclopentyl)amino)-2-oxoacetyl)-2-methyl-5,6,7,8-tetrahydroindolizine-1-carboxamide]
EC50 [1]: 50 to 499 nM
CC50 at 7 days [2]: 5000 to 30000 nM

Cc1cc(NC(=O)c2c(C)c(C(=O)C(=O)NC3(CO)CC(F)(F)C3)n3c2CCCC3)ccc1F [Example 441, 3-(2-((3,3-difluoro-1-(hydroxymethyl)cyclobutyl)amino)-2-oxoacetyl)-N-(4-fluoro-3-methylphenyl)-2-methyl-5,6,7,8-tetrahydroindolizine-1-carboxamide]
EC50 [1]: < 50 nM
CC50 at 7 days [2]: 5000 to 30000 nM

Cc1cc(NC(=O)c2c(C)c(C(=O)C(=O)NC3(CO)CCC3)n3c2CCCC3)ccc1F [Example 442, N-(4-fluoro-3-methylphenyl)-3-(2-((1-(hydroxymethyl)cyclobutyl)amino)-2-oxoacetyl)-2-methyl-5,6,7,8-tetrahydroindolizine-1-carboxamide]
EC50 [1]: < 50 nM
CC50 at 7 days [2]: 5000 to 30000 nM

Cc1cc(NC(=O)c2c(C)c(C(=O)C(=O)NCC(C)(C)CO)n3c2CCCC3)ccc1F [Example 443, N-(4-fluoro-3-methylphenyl)-3-(2-((3-hydroxy-2,2-dimethylpropyl)amino)-2-oxoacetyl)-2-methyl-5,6,7,8-tetreahydroindolizine-1-carboxamide]
EC50 [1]: < 50 nM
CC50 at 7 days [2]: 5000 to 30000 nM

Cc1cc(NC(=O)c2c(C)c(C(=O)C(=O)NCC(C)(C)O)n3c2CCCC3)ccc1F [Example 444, N-(4-fluoro-3-methylphenyl)-3-(2-((2-hydroxy-2-methylpropyl)amino)-2-oxoacetyl)-2-methyl-5,6,7,8-tetrahydroindolizine-1-carboxamide]
EC50 [1]: < 50 nM
CC50 at 7 days [2]: 5000 to 30000 nM

Cc1cc(NC(=O)c2c(C)c(C(=O)C(=O)NC3(CO)CC3)n3c2CCCC3)ccc1F [Example 445, N-(4-fluoro-3-methylphenyl)-3-(2-((1-(hydroxymethyl)cyclopropyl)amino)-2-oxoacetyl)-2-methyl-5,6,7,8-tetrahydroindolizine-1-carboxamide]
EC50 [1]: < 50 nM
CC50 at 7 days [2]: 5000 to 30000 nM

Cc1noc([C@H](C)NC(=O)C(=O)c2c(C)c(C(=O)Nc3ccc(F)c(Cl)c3)c3n2CCCC3)n1 [Example 446, (S)-N-(3-chloro-4-fluorophenyl)-2-methyl-3-(2-((1-(3-methyl-1,2,4-oxadiazol-5-yl)ethyl)amino)-2-oxoacetyl)-5,6,7,8-tetrahydroindolizine-1-carboxamide]
EC50 [1]: 50 to 499 nM
CC50 at 7 days [2]: 5000 to 30000 nM

Cc1noc([C@@H](C)NC(=O)C(=O)c2c(C)c(C(=O)Nc3ccc(F)c(Cl)c3)c3n2CCCC3)n1 [Example 447, (R)-N-(3-chloro-4-fluorophenyl)-2-methyl-3-(2-((1-(3-methyl-1,2,4-oxadiazol-5-yl)ethyl)amino)-2-oxoacetyl)-5,6,7,8-tetrahydroindolizine-1-carboxamide]
EC50 [1]: < 50 nM
CC50 at 7 days [2]: 5000 to 30000 nM

Cc1c(C(=O)Nc2ccc(F)c(Cl)c2)c2n(c1C(=O)C(=O)NCc1cnc(N)s1)CCCC2 [Example 448, 3-(2-(((2-aminothiazol-5-yl)methyl)amino)-2-oxoacetyl)-N-(3-chloro-4-fluorophenyl)-2-methyl-5,6,7,8-tetrahydroindolizine-1-carboxamide]
EC50 [1]: < 50 nM
CC50 at 7 days [2]: 5000 to 30000 nM

Cc1c(C(=O)Nc2ccc(F)c(Cl)c2)c2n(c1C(=O)C(=O)N[C@H]1C[C@H](O)C1)CCCC2 [Example 449, N-(3-chloro-4-fluorophenyl)-3-(2-(((1r,3r)-3-hydroxycyclobutyl)amino)-2-oxoacetyl)-2-methyl-5,6,7,8-tetrahydroindoliziine-1-carboxamide]
EC50 [1]: 50 to 499 nM
CC50 at 7 days [2]: > 30000 nM

Cc1c(C(=O)Nc2ccc(F)c(Cl)c2)c2n(c1C(=O)C(=O)N[C@H]1COC[C@@H]1O)CCCC2 [Example 450, N-(3-chloro-4-fluorophenyl)-3-(2-(((3S,4R)-4-hydroxytetrahydrofuran-3-yl)amino)-2-oxoacetyl)-2-methyl-5,6,7,8-tetrahydroindolizine-1-carboxamide]
EC50 [1]: 50 to 499 nM
CC50 at 7 days [2]: > 30000 nM

Cc1c(C(=O)Nc2ccc(F)c(Cl)c2)c2n(c1C(=O)C(=O)N[C@H]1CCC[C@H]1O)CCCC2 [Example 451, N-(3-chloro-4-fluorophenyl)-3-(2-(((1S,2R)-2-hydroxycyclopentyl)amino)-2-oxoacetyl)-2-methyl-5,6,7,8-tetrahydroindolizine-1-carboxamide]
EC50 [1]: 50 to 499 nM
CC50 at 7 days [2]: 5000 to 30000 nM

Cc1c(C(=O)Nc2ccc(F)c(Cl)c2)c2n(c1C(=O)C(=O)NC1(CO)CCC1)CCCC2 [Example 452, N-(3-chloro-4-fluorophenyl)-3-(2-((1-(hydroxymethyl)cyclobutyl)amino)-2-oxoacetyl)-2-methyl-5,6,7,8-tetrahydroindolizine-1-carboxamide]
EC50 [1]: < 50 nM
CC50 at 7 days [2]: 5000 to 30000 nM

Cc1c(C(=O)Nc2ccc(F)c(Cl)c2)c2n(c1C(=O)C(=O)NC1(CO)CC1)CCCC2 [Example 453, N-(3-chloro-4-fluorophenyl)-3-(2-((1-(hydroxymethyl)cyclopropyl)amino)-2-oxoacetyl)-2-methyl-5,6,7,8-tetrahydroindolizine-1-carboxamide]
EC50 [1]: 50 to 499 nM
CC50 at 7 days [2]: > 30000 nM

Cc1noc([C@@H](C)NC(=O)C(=O)c2c(C)c(C(=O)Nc3ccc(F)c(F)c3)c3n2CCCC3)n1 [Example 454, (R)-N-(3,4-difluorophenyl)-2-methyl-3-(2-((1-(3-methyl-1,2,4-oxadiazol-5-yl)ethyl)amino)-2-oxoacetyl) 5,6,7,8-tetrahydroindolizine-1-carboxamide]
EC50 [1]: 50 to 499 nM
CC50 at 7 days [2]: > 30000 nM
